This passage reports release rate results from patent US20130004651A1, “SUSTAINED DRUG RELEASE FROM BODY IMPLANTS USING NANOPARTICLE-EMBEDDED POLYMERIC COATING MATERIALS” (priority 2011, published 2013).

The data set can be described thus: Sustained release study (fluorescence intensity vs. time). It is filed as physicochemical. Here is the method:
Step 3: Sustained Release Study
FIGS. 6a and 6b show the sustained release of chloramphenicol (at 1 and 4 molar concentrations, respectively) from the liposomes described above as a function of fluorescence intensity vs. time at a release rate of about 0.65 mg/day.

Consider `O=C(N[C@H](CO)[C@H](O)c1ccc([N+](=O)[O-])cc1)C(Cl)Cl` [chloramphenicol], for which the release rate result (sustained release from liposomes, 1 and 4 molar concentrations (FIGS. 6a, 6b)) is reported as “about 0.65 mg/day”. For vitamin E, the release rate result (sustained release from reverse micelles (FIG. 6c)) is on record as “about 113 mg/day”.
